Measurements from paper PMC8222276 (Communications Biology, 2021).

Tests used:
[1] = test system: HUVECs; experiment: cell proliferation (72 h) of HUVECs; format: cell-based, human; conditions: HUVEC
Method: (§1) Data are analysed using a three-parameter non-linear regression curve or the operational model of receptor agonism. g–h Signalling bias plots were calculated as ∆Log(τ/KA) (g) or ∆∆Log(τ/KA) (h) for each agonist and for each signalling pathway. […] Solid arrows indicate known pathways. Dashed arrows represent possible pathways.
Both endothelial cell lines and HCMs were seeded at a density of 2500 cells/well in a clear flat bottom 96-well plate (Corning, UK) and incubated at 37 °C in 5% CO2. After 24 h, cells were exposed to test compounds or vehicle, in complete endothelial cell growth media (HUVECs) or myocyte growth media (HCMs). Cells were incubated for a further 72 h at 37 °C in 5% CO2. After 72 h incubation, 5 μl of Cell Counting Kit–8 (CCK-8, Sigma, UK) was added to each well and cells were then incubated for another 2 h at 37 °C in 5% CO2 and in the dark[61]. The absorbance of each well was measured using a Mithras LB940 microplate reader with an excitation of 450 nm. The absorbance is directly proportional to the number of viable cells. Cell proliferation was calculated as a percentage of number of cells treated with vehicle alone.
(§2) All sample sizes were determined, and data analysed, in accordance with the guidelines described by Curtis M et al.[65]. All experiments were appropriately controlled using ‘system pathway’ agonists. If any of these pathway controls generated inappropriate responses, then the entire data set was removed from analysis. […] Data analysis for cAMP accumulation, Ca^2+i mobilisation, NO accumulation, pERK1/2 activation, and cell proliferation assays were performed in GraphPad Prism 8.4 (GraphPad Software, San Diego). Data were fitted to obtain concentration–response curves using either the three-parameter logistic equation using to obtain values of Emax and pEC50 or the operational model of agonism. Statistical differences were analysed using one-way ANOVA followed by Dunnett’s post-hoc (for comparisons amongst more than two groups) or unpaired Student’s t test with Welch’s correction (for comparison between two groups). To account for the day-to-day variation experienced from the cultured cells, we used the maximal level of cAMP accumulation from cells in response to 100 μM forskolin stimulation was used as a reference, 10 μM ionomycin for Ca^2+i assays, 10 μM phorbol 12-myristate 13-acetate (PMA) for pERK1/2 activation, 10 μM acetylcholine for NO production and 10 μM VEGF for cell proliferation. […] Where appropriate the operational model for receptor agonism[27] was used to obtain efficacy (τ) and equilibrium disassociation constant (KA) values. In both cases, this normalisation removes the variation due to differences in days but retains the variance for control values. The means of individual experiments were combined to generate the curves shown. Having obtained values for τ and KA these were then used to quantify signalling bias as the change in Log(τ/KA)[19],[28]. Error for this composite measure was propagated by applying Eq. 1.1 PooledSEM=(SEMA)^2+(SEMB)^2 Where, SEMA and SEMB are the standard error of measurement A and B.

[2] = target: T1, AM1 receptor (CLR-RAMP2) in HUVECs (Homo sapiens, UniProt O60895+Q16602); experiment: ERK1/2 phosphorylation in HUVECs; format: cell-based
T1 construct: HUVECs specifically express the AM1 receptor alone; host or cells: primary HUVECs
Method: as §1
Data are analysed using a three-parameter non-linear regression curve. All data represent mean ± SEM of n independent experiments. Statistical significance determined compared to control using an unpaired Student’s t test with Welch’s correction (*p < 0.05; **p < 0.01; ***p < 0.001).
Primary cells were grown in 6 well plates, on the day of the experiment media was replaced with serum free media 4 h prior to cell harvesting. Tyrpsin-EDTA was used to dissociate the cells and they were collected by centrifugation, counted and re-suspended HBSS/BSA (0.1%). Ligands were also diluted in HBSS/BSA. Cells were then plated on 384 well plates in 8 μl aliquots at a density of 20,000 cells/well. Next, ligands were added (4 μl) for 5 min stimulation at room temperature. Cells were then lysed as per to the manufacturer’s instructions with 4 μl of lysis buffer (Cisbio phosphor-ERK1/2 cellular assay kit, Invitrogen, UK) for 30 min shaking at room temperature. The 2 specific antibodies; were pre-mixed in a 1:1 ratio. 4 μl of this was added to each well and the plate incubated for a further 2 h. […] Antagonist studies were performed in the same way through co-stimulation with PTX (200 ng/ml), Rp-8-Br-cAMPS (100 μM), YM-254890 (100 nM), or ESI-09 (100 μM) as appropriate alongside control-treated cell.
as §2

[3] = target: T2, CGRP receptor (CLR-RAMP1) in RAMP1-HUVECs (Homo sapiens, UniProt O60894+Q16602); experiment: cAMP accumulation in RAMP1-HUVECs; format: cell-based; conditions: RAMP1-HUVEC, 30 min, relative to 100 μM forskolin, mean ± SEM
T2 construct: biased agonism at the endogenous CLR in a physiological system; the open reading frame of RAMP1 into our HUVEC∆RAMP2 cell line; host or cells: HUVEC-∆RAMP2 (CRISPR-Cas9 RAMP2 knockout pool), lentiviral transduction, blasticidin selection
Method: Data are analysed using a three-parameter non-linear regression curve or the operational model of receptor agonism. g–h Signalling bias plots were calculated as ∆Log(τ/KA) (g) or ∆∆Log(τ/KA) (h) for each agonist and for each signalling pathway. […] All data represent mean ± SEM for n repeats.
All primary cell lines were cultured as above. On the day of the experiment media was removed and cells washed with PBS, before being dissociated with Trypsin-EDTA 0.05% (Gibco, UK) and then resuspended in PBS/BSA (0.1%) (Sigma, UK). Cells were immediately plated for use in cAMP assay as per the manufacturer’s instructions, reagents used were provided by the LANCE® cAMP detection assay kit (PerkinElmer, Boston, MA, USA), in 384 well optiplates (PerkinElmer (Boston, MA, USA)) at 2000 cells/well in 5 μl aliquots. […] Cells were incubated with compound for 30 min prior to adding detection buffer[28],[60]. Plates were incubated for a further 60 min (room temperature) and then read on a plate reader (Mithras LB 940 microplate reader (Berthold technologies, Germany)). All responses were normalised to 100μM forskolin (Tocris, UK). Antagonist studies were performed in the same way through co-stimulation of the relevant concentration. Alongside control-treated cell. […]
All sample sizes were determined, and data analysed, in accordance with the guidelines described by Curtis M et al.[65]. […]

[4] = proliferation, operational model, mean ± SEM
[5] = pERK1/2, HUVEC, operational model, mean ± SEM

T1 sequence (Q16602 23-461): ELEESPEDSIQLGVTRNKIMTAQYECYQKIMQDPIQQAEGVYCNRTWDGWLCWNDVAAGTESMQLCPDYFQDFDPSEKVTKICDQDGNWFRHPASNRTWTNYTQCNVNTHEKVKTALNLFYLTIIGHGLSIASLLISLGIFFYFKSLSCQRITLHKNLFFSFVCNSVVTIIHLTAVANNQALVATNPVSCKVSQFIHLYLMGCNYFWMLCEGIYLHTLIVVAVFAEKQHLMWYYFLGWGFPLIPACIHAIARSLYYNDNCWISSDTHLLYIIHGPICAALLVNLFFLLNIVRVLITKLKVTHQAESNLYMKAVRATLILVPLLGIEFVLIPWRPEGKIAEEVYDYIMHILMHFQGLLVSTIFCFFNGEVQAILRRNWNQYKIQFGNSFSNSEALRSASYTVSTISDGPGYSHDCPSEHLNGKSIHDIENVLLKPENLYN
T1 sequence (O60895 43-175): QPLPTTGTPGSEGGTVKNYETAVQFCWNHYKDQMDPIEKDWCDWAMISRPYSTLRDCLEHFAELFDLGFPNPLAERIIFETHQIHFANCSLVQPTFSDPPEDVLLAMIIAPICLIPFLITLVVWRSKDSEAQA
T2 sequence (Q16602 23-461): as the sequence (Q16602 23-461) above
T2 sequence (O60894 27-148): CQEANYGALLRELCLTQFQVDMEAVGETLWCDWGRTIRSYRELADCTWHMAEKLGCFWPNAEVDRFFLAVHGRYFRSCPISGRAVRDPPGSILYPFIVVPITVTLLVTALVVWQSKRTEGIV

CSCC[C@H](NC(=O)[C@H](CC(C)C)NC(=O)[C@H](CCC(N)=O)NC(=O)[C@H](Cc1c[nH]c2ccccc12)NC(=O)[C@H](CC(C)C)NC(=O)[C@H](CCCNC(=N)N)NC(=O)[C@H](Cc1c[nH]cn1)NC(=O)[C@H](CO)NC(=O)[C@H](CC(C)C)NC(=O)[C@H](CC(N)=O)NC(=O)[C@H](CCC(N)=O)NC(=O)[C@@H](NC(=O)[C@H](CCC(N)=O)NC(=O)[C@@H]1CSSC[C@H](NC(=O)CNC(=O)[C@@H](NC(=O)[C@H](CCCNC(=N)N)NC(=O)[C@H](CC(C)C)NC(=O)[C@H](CC(C)C)NC(=O)[C@H](CCC(N)=O)NC(=O)[C@H](C)NC(=O)[C@H](CCC(N)=O)NC(=O)[C@@H](N)[C@@H](C)O)C(C)C)C(=O)N[C@@H](C(C)C)C(=O)N[C@@H](CC(C)C)C(=O)NCC(=O)N[C@@H]([C@@H](C)O)C(=O)N1)C(C)C)C(=O)NCC(=O)N1CCC[C@H]1C(=O)N[C@@H](C)C(=O)NCC(=O)N[C@@H](CCCNC(=N)N)C(=O)N[C@@H](CCC(N)=O)C(=O)N[C@@H](CC(=O)O)C(=O)N[C@@H](CO)C(=O)N[C@@H](C)C(=O)N1CCC[C@H]1C(=O)N[C@H](C(=O)N[C@@H](CC(=O)O)C(=O)N1CCC[C@H]1C(=O)N[C@@H](CO)C(=O)N[C@@H](CO)C(=O)N1CCC[C@H]1C(=O)N[C@@H](Cc1c[nH]cn1)C(=O)N[C@@H](CO)C(=O)N[C@@H](Cc1ccc(O)cc1)C(N)=O)C(C)C [AM2, adrenomedullin 2]
Transducer coefficient Log(τ/KA) ([1]; Growth, calculated from Table S1): 5.74±0.92 | Emax ([1]; proliferation, 72 h, CCK-8, mean ± SEM): 103.74±1.43% | pEC50 ([1]; proliferation, 72 h, mean ± SEM of 3-6 data sets): 7.06±0.9 | logτ [1, 4]: -1.29±0.20 | pKA [1, 4]: 7.03±0.90 | Emax ([2]; HUVEC): 33.3 ± 4.59% | mechanism of ERK1/2 stimulation ([2]; HUVEC): mediated in a Gi/o-dependent manner | effect of PTX on ERK1/2 phosphorylation ([2]; HUVEC, PTX): suppression of ERK1/2 phosphorylation | Transducer coefficient Log(τ/KA) ([2]; pERK1/2, HUVEC, calculated from Table S1): 5.06±0.21 | logτ [2, 5]: -0.35±0.08 | pKA [2, 5]: 5.41±0.19

CC[C@H](C)[C@H](NC(=O)[C@H](CCC(N)=O)NC(=O)[C@H](Cc1c[nH]cn1)NC(=O)[C@H](C)NC(=O)[C@H](CC(C)C)NC(=O)[C@H](CCCCN)NC(=O)[C@H](CCC(N)=O)NC(=O)[C@@H](NC(=O)[C@@H](NC(=O)[C@@H]1CSSC[C@H](NC(=O)CNC(=O)[C@H](Cc2ccccc2)NC(=O)[C@H](CO)NC(=O)[C@H](CCCNC(=N)N)NC(=O)[C@H](CC(C)C)NC(=O)CNC(=O)[C@H](CCC(N)=O)NC(=O)[C@H](Cc2ccccc2)NC(=O)[C@H](CC(N)=O)NC(=O)[C@H](CC(N)=O)NC(=O)[C@H](CCSC)NC(=O)[C@H](CO)NC(=O)[C@H](CCC(N)=O)NC(=O)[C@H](CCCNC(=N)N)NC(=O)[C@@H](N)Cc2ccc(O)cc2)C(=O)N[C@@H](CCCNC(=N)N)C(=O)N[C@@H](Cc2ccccc2)C(=O)NCC(=O)N[C@@H]([C@@H](C)O)C(=O)N1)[C@@H](C)O)C(C)C)C(=O)N[C@@H](Cc1ccc(O)cc1)C(=O)N[C@@H](CCC(N)=O)C(=O)N[C@@H](Cc1ccccc1)C(=O)N[C@H](C(=O)N[C@@H](CC(=O)O)C(=O)N[C@@H](CCCCN)C(=O)N[C@@H](CC(=O)O)C(=O)N[C@@H](CCCCN)C(=O)N[C@@H](CC(=O)O)C(=O)N[C@@H](CC(N)=O)C(=O)N[C@H](C(=O)N[C@@H](C)C(=O)N1CCC[C@H]1C(=O)N[C@@H](CCCNC(=N)N)C(=O)N[C@@H](CO)C(=O)N[C@@H](CCCCN)C(=O)N[C@H](C(=O)N[C@@H](CO)C(=O)N1CCC[C@H]1C(=O)N[C@@H](CCC(N)=O)C(=O)NCC(=O)N[C@@H](Cc1ccc(O)cc1)C(N)=O)[C@@H](C)CC)C(C)C)[C@@H](C)O [AM, adrenomedullin]
Emax [3]: 39 ± 2.08%
